Assay results: patent US20260262643A1, “HERBICIDAL BENZOXAZINES” (FMC CORPORATION, priority 2022, published 2026)

What was measured:
blackgrass [1] = assay: Test A preemergence; assay type: in vivo, Alopecurus myosuroides
Summary of the method: (§1)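 Weeds and crops in loam–sand blend were sprayed preemergence onto soil or postemergence at 2–10 cm (one- to two-leaf stage). Test chemicals were in a non-phytotoxic solvent with surfactant. After 10 days in the greenhouse, injury was rated visually against untreated controls on a 0 (no effect) to 100 (complete control) scale.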

corn [2] = assay: Test A preemergence; assay type: in vivo, Zea mays
Summary of the method: as §1

foxtail, giant [3] = assay: Test A preemergence; assay type: in vivo, Setaria faberi
Summary of the method: as §1

goosegrass [4] = assay: Test A preemergence; assay type: in vivo, Eleusine indica
Summary of the method: as §1

kochia [5] = assay: Test A preemergence; assay type: in vivo, Bassia scoparia
Summary of the method: as §1

oat, wild [6] = assay: Test A preemergence; assay type: in vivo, Avena fatua
Summary of the method: as §1

pigweed, palmer [7] = assay: Test A preemergence; assay type: in vivo, Amaranthus palmeri
Summary of the method: as §1

ragweed [8] = assay: Test A preemergence; assay type: in vivo, Ambrosia artemisiifolia
Summary of the method: as §1

ryegrass, Italian [9] = assay: Test A preemergence; assay type: in vivo, Lolium multiflorum
Summary of the method: as §1

soybean [10] = assay: Test A preemergence; assay type: in vivo, Glycine max
Summary of the method: as §1

wheat [11] = assay: Test A preemergence; assay type: in vivo, Triticum aestivum
Summary of the method: as §1

blackgrass [12] = assay: Test A postemergence; assay type: in vivo, Alopecurus myosuroides
Summary of the method: as §1

corn [13] = assay: Test A postemergence; assay type: in vivo, Zea mays; conditions: postemergence, 10 days; for Plant response rating, Corn: visual injury, 0 to 100 scale (0 no effect, 100 complete control)
Summary of the method: as §1

foxtail, giant [14] = assay: Test A postemergence; assay type: in vivo, Setaria faberi; conditions: postemergence, 10 days; for Plant response rating, Foxtail, Giant: visual injury, 0 to 100 scale (0 no effect, 100 complete control)
Summary of the method: as §1

goosegrass [15] = assay: Test A postemergence; assay type: in vivo, Eleusine indica; conditions: postemergence, 10 days; for Plant response rating, Goosegrass: visual injury, 0 to 100 scale (0 no effect, 100 complete control)
Summary of the method: as §1

kochia [16] = assay: Test A postemergence; assay type: in vivo, Bassia scoparia; conditions: postemergence, 10 days; for Plant response rating, Kochia: visual injury, 0 to 100 scale (0 no effect, 100 complete control)
Summary of the method: as §1

oat, wild [17] = assay: Test A postemergence; assay type: in vivo, Avena fatua; conditions: postemergence, 10 days; for Plant response rating, Oat, Wild: 500 g ai/ha, visual injury, 0 to 100 scale (0 no effect, 100 complete control)
Summary of the method: as §1

pigweed, palmer [18] = assay: Test A postemergence; assay type: in vivo, Amaranthus palmeri; conditions: postemergence, 10 days; for Plant response rating, Pigweed, Palmer: 500 g ai/ha, visual injury, 0 to 100 scale (0 no effect, 100 complete control)
Summary of the method: as §1

ragweed [19] = assay: Test A postemergence; assay type: in vivo, Ambrosia artemisiifolia; conditions: postemergence, 10 days; for Plant response rating, Ragweed: 500 g ai/ha, visual injury, 0 to 100 scale (0 no effect, 100 complete control)
Summary of the method: as §1

ryegrass, Italian [20] = assay: Test A postemergence; assay type: in vivo, Lolium multiflorum; conditions: postemergence, 10 days; for Plant response rating, Ryegrass, Italian: 500 g ai/ha, visual injury, 0 to 100 scale (0 no effect, 100 complete control)
Summary of the method: as §1

soybean [21] = assay: Test A postemergence; assay type: in vivo, Glycine max; conditions: postemergence, 10 days; for Plant response rating, Soybean: 500 g ai/ha, visual injury, 0 to 100 scale (0 no effect, 100 complete control)
Summary of the method: as §1

wheat [22] = assay: Test A postemergence; assay type: in vivo, Triticum aestivum; conditions: postemergence, 10 days; for Plant response rating, Wheat: 500 g ai/ha, visual injury, 0 to 100 scale (0 no effect, 100 complete control)
Summary of the method: as §1

galium = assay: Test A postemergence; assay type: in vivo, Galium aparine; conditions: postemergence, 10 days; for Plant response rating, Galium: visual injury, 0 to 100 scale (0 no effect, 100 complete control)
Summary of the method: as §1

horseweed = assay: Test A postemergence; assay type: in vivo, Erigeron canadensis; conditions: postemergence, 10 days; for Plant response rating, Horseweed: visual injury, 0 to 100 scale (0 no effect, 100 complete control)
Summary of the method: as §1

barnyardgrass = assay: Test B flooded paddy test; assay type: in vivo, Echinochloa crus-galli; conditions: 250 g ai/ha, Flood, 13 days, 0 to 100 scale (0 no effect, 100 complete control)
Summary of the method: (§2)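 Species grown to 2-leaf stage; pots flooded 3 cm above soil and compound applied directly to paddy water, depth maintained throughout. After 13 days in greenhouse, plants visually rated against controls on 0–100 scale (0 no effect, 100 complete control); dash means no result.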

ducksalad = assay: Test B flooded paddy test; assay type: in vivo, Heteranthera limosa; conditions: 250 g ai/ha, Flood, 13 days, 0 to 100 scale (0 no effect, 100 complete control)
Summary of the method: as §2

rice = assay: Test B flooded paddy test; assay type: in vivo, Oryza sativa; conditions: 250 g ai/ha, Flood, 13 days, 0 to 100 scale (0 no effect, 100 complete control)
Summary of the method: as §2

sedge, umbrella = assay: Test B flooded paddy test; assay type: in vivo, Cyperus difformis; conditions: 250 g ai/ha, Flood, 13 days, 0 to 100 scale (0 no effect, 100 complete control)
Summary of the method: as §2

[23] = 125 g ai/ha, visual injury after 10 days, 0 to 100 scale, 0 is no effect, 100 is complete control
[24] = 500 g ai/ha, visual injury after 10 days, 0 to 100 scale, 0 is no effect, 100 is complete control
[25] = 125 g ai/ha, 0 to 100 scale, 0 no effect, 100 complete control
[26] = 500 g ai/ha, 0 to 100 scale (0 no effect, 100 complete control), 10 days

For `Cc1cccc2c1O[C@@H](C)CN2C(=O)c1cccc(-n2cnn(C(C)C)c2=O)c1` [Compound 118], the “Plant response rating, Blackgrass” value (blackgrass [1]; [23]) was 20, the “Plant response rating, Blackgrass” value (blackgrass [1]; [24]) was 70 and the “Plant response rating, Corn” value (corn [2]; [23]) was 0. The “Plant response rating, Corn” value (corn [2]; [24]) was 30, the “Plant response rating, Foxtail, Giant” value (foxtail, giant [3]; [23]) was 20 and the “Plant response rating, Foxtail, Giant” value (foxtail, giant [3]; [24]) was 100. For the same molecule, the “Plant response rating, Goosegrass” value (goosegrass [4]; [23]) was 90, the “Plant response rating, Goosegrass” value (goosegrass [4]; [24]) was 100 and the “Plant response rating, Kochia” value (kochia [5]; [23]) was 0. The “Plant response rating, Kochia” value (kochia [5]; [24]) was 70, the “Plant response rating, Oat, Wild” value (oat, wild [6]; [23]) was 30 and the “Plant response rating, Oat, Wild” value (oat, wild [6]; [24]) was 90. For the same molecule, the “Plant response rating, Pigweed, Palmer” value (pigweed, palmer [7]; [23]) was 40, the “Plant response rating, Pigweed, Palmer” value (pigweed, palmer [7]; [24]) was 100 and the “Plant response rating, Ragweed” value (ragweed [8]; [23]) was 0. The “Plant response rating, Ragweed” value (ragweed [8]; [24]) was 30, the “Plant response rating, Ryegrass, Italian” value (ryegrass, Italian [9]; [23]) was 70 and the “Plant response rating, Ryegrass, Italian” value (ryegrass, Italian [9]; [24]) was 100. The “Plant response rating, Soybean” value (soybean [10]; [23]) was 40, the “Plant response rating, Soybean” value (soybean [10]; [24]) was 60 and the “Plant response rating, Wheat” value (wheat [11]; [23]) was 0. The “Plant response rating, Wheat” value (wheat [11]; [24]) was 30, the “Blackgrass plant response rating” value (blackgrass [12]; 125 g ai/ha, postemergence, 10 days, 0 to 100 scale, 0 no effect, 100 complete control) was 0 and the “Plant response rating, Blackgrass” value (blackgrass [12]; 500 g ai/ha, postemergence, 10 days, visual injury, 0 to 100 scale (0 no effect, 100 complete control)) was 70. The “Corn plant response rating” value (corn [13]; [25]) was 0, the “Plant response rating, Corn” value (corn [13]; 500 g ai/ha) was 70 and the “Foxtail, Giant plant response rating” value (foxtail, giant [14]; [25]) was 10. For the same molecule, the “Plant response rating, Foxtail, Giant” value (foxtail, giant [14]; 500 g ai/ha) was 50, the “Goosegrass plant response rating” value (goosegrass [15]; [25]) was 20 and the “Plant response rating, Goosegrass” value (goosegrass [15]; 500 g ai/ha) was 40. For the same molecule, the “Kochia plant response rating” value (kochia [16]; [25]) was 30, the “Plant response rating, Kochia” value (kochia [16]; 500 g ai/ha) was 80 and the “Oat, Wild plant response rating” value (oat, wild [17]; [25]) was 10. For the same molecule, the “Plant response rating, Oat, Wild” value (oat, wild [17]) was 90, the “Pigweed, Palmer plant response rating” value (pigweed, palmer [18]; [25]) was 0 and the “Plant response rating, Pigweed, Palmer” value (pigweed, palmer [18]) was 20. The “Ragweed plant response rating” value (ragweed [19]; [25]) was 0, the “Plant response rating, Ragweed” value (ragweed [19]) was 30 and the “Ryegrass, Italian plant response rating” value (ryegrass, Italian [20]; [25]) was 10. The “Plant response rating, Ryegrass, Italian” value (ryegrass, Italian [20]) was 60, the “Soybean plant response rating” value (soybean [21]; [25]) was 40 and the “Plant response rating, Soybean” value (soybean [21]) was 80. The “Wheat plant response rating” value (wheat [22]; [25]) was 10, the “Plant response rating, Wheat” value (wheat [22]) was 30 and the “Galium plant response rating” value (galium; [25]) was 10. The “Plant response rating, Galium” value (galium; 500 g ai/ha) was 30, the “Horseweed plant response rating” value (horseweed; [25]) was 0 and the “Plant response rating, Horseweed” value (horseweed; 500 g ai/ha) was 0. The “Plant response rating, Barnyardgrass” value (barnyardgrass) was 0, the “Plant response rating, Ducksalad” value (ducksalad) was 0 and the “Plant response rating, Rice” value (rice) was 0. The “Plant response rating, Sedge, Umbrella” value (sedge, umbrella) was 0.

For `CCCc1ncn(-c2cccc(C(=O)N3C[C@H](C)Oc4c(C)cccc43)c2)n1` [Compound 72], the “Plant response rating, Blackgrass” value (blackgrass [1]; [23]) was 40, the “Plant response rating, Blackgrass” value (blackgrass [1]; [26]) was 70 and the “Plant response rating, Corn” value (corn [2]; [23]) was 30. For the same molecule, the “Plant response rating, Corn” value (corn [2]; [26]) was 50, the “Plant response rating, Foxtail, Giant” value (foxtail, giant [3]; [23]) was 100 and the “Plant response rating, Foxtail, Giant” value (foxtail, giant [3]; [26]) was 100. For the same molecule, the “Plant response rating, Goosegrass” value (goosegrass [4]; [23]) was 90, the “Plant response rating, Goosegrass” value (goosegrass [4]; [26]) was 100 and the “Plant response rating, Kochia” value (kochia [5]; [23]) was 30. For the same molecule, the “Plant response rating, Kochia” value (kochia [5]; [26]) was 80, the “Plant response rating, Oat, Wild” value (oat, wild [6]; [23]) was 10 and the “Plant response rating, Oat, Wild” value (oat, wild [6]; [26]) was 90. For the same molecule, the “Plant response rating, Pigweed, Palmer” value (pigweed, palmer [7]; [23]) was 70, the “Plant response rating, Pigweed, Palmer” value (pigweed, palmer [7]; [26]) was 100 and the “Plant response rating, Ragweed” value (ragweed [8]; [23]) was 0. The “Plant response rating, Ragweed” value (ragweed [8]; [26]) was 0, the “Plant response rating, Ryegrass, Italian” value (ryegrass, Italian [9]; [23]) was 100 and the “Plant response rating, Ryegrass, Italian” value (ryegrass, Italian [9]; [26]) was 100. For the same molecule, the “Plant response rating, Soybean” value (soybean [10]; [23]) was 30, the “Plant response rating, Soybean” value (soybean [10]; [26]) was 60 and the “Plant response rating, Wheat” value (wheat [11]; [23]) was 0. The “Plant response rating, Wheat” value (wheat [11]; [26]) was 30, the “Plant response rating, Blackgrass” value (blackgrass [12]; 125 g ai/ha, postemergence, 10 days, visual injury, 0 to 100 scale (0 no effect, 100 complete control)) was 0 and the “Plant response rating, Blackgrass” value (blackgrass [12]; 500 g ai/ha, Postemergence, 0 to 100 scale) was 80. The “Plant response rating, Corn” value (corn [13]; 125 g ai/ha) was 30, the “Plant response rating, Corn” value (corn [13]; 500 g ai/ha) was 90 and the “Plant response rating, Foxtail, Giant” value (foxtail, giant [14]; 125 g ai/ha) was 10. The “Plant response rating, Foxtail, Giant” value (foxtail, giant [14]; 500 g ai/ha) was 50, the “Plant response rating, Goosegrass” value (goosegrass [15]; 125 g ai/ha) was 50 and the “Plant response rating, Goosegrass” value (goosegrass [15]; 500 g ai/ha) was 90. For the same molecule, the “Plant response rating, Kochia” value (kochia [16]; 125 g ai/ha) was 70, the “Plant response rating, Kochia” value (kochia [16]; 500 g ai/ha) was 90 and the “Plant response rating, Oat, Wild” value (oat, wild [17]) was 50. The “Plant response rating, Pigweed, Palmer” value (pigweed, palmer [18]) was 70, the “Plant response rating, Ragweed” value (ragweed [19]) was 50 and the “Plant response rating, Ryegrass, Italian” value (ryegrass, Italian [20]) was 70. For the same molecule, the “Plant response rating, Soybean” value (soybean [21]) was 100, the “Plant response rating, Wheat” value (wheat [22]) was 30 and the “Plant response rating, Galium” value (galium; 125 g ai/ha) was 70. For the same molecule, the “Plant response rating, Galium” value (galium; 500 g ai/ha) was 100, the “Plant response rating, Horseweed” value (horseweed; 125 g ai/ha) was 20 and the “Plant response rating, Horseweed” value (horseweed; 500 g ai/ha) was 50. The “Plant response rating, Barnyardgrass” value (barnyardgrass) was 15, the “Plant response rating, Ducksalad” value (ducksalad) was 55 and the “Plant response rating, Rice” value (rice) was 0. The “Plant response rating, Sedge, Umbrella” value (sedge, umbrella) was 15.
